Measurements taken from publication PMC11944851, “Computationally Guided Design, Synthesis, and Evaluation of Novel Non-Hydroxamic Histone Deacetylase Inhibitors, Based on N-Trifluoroacetamide as a Zinc-Binding Group, Against Breast Cancer” (Pharmaceuticals, 2025).
Read-outs that look alike come from different tables or passages of the source.

Tests used:
[1] = MTT cell viability, non-tumorigenic MCF-10A; type: cell-based; conditions: human, MCF-10A non-cancerous mammary epithelial cells, MTT, non-tumorigenic breast cells, read-out: Cytotoxic Activity IC50 MCF-10A
Protocol: (§1) For the culture of normal breast epithelial cells MCF-10A, DMEM-F12 medium without phenol red was used, supplemented with 5% fetal bovine serum (Gibco, Waltham, MA, USA), 1% Penicillin/Streptomycin (10,000 U/mL, Gibco, Waltham, MA, USA), 1% non-essential amino acids (Gibco, Waltham, MA, USA), 0.33% hydrocortisone, 0.2% insulin (100 U/mL), and 0.002% EGF (1 µg/µL). For the assays with MCF-10A cells, 2.5 × 10^3 cells/well were seeded in 100 µL of medium.
(§2) The 3-(4,5-dimethylthiazol-2-yl)-2,5-diphenyl tetrazolium bromide assay was used to evaluate the effect of the designed compounds on cell viability. These compounds were initially dissolved in DMSO (dimethyl sulfoxide) as stock solutions at 150 mM. Cells were seeded in 96-well plates (NEST Biotechnology Co., Wuxi, China) at different densities, depending on the cell line used and the incubation time with the treatments, and left in 100 µL of the corresponding culture medium for 24 h to allow for adhesion. Then, the cells were treated with different concentrations of each compound, maintaining a maximum of 0.46% DMSO. After 48 or 72 h of treatment, 20 µL of MTT (5 mg/mL) in phosphate-buffered saline (PBS; Sigma) solution was added to each well and incubated again for 3 h. Subsequently, the blue formazan compound derived from the MTT was dissolved in 100 µL of DMSO. The optical density of the wells was measured at 550 nm using an ELISA reader (MultiSkan, Thermo Scientific, Waltham, MA, USA). Finally, cell viability was expressed as a percentage relative to the negative control (untreated and 0.46% DMSO).
(§3) Cytotoxicity data were analyzed using one-way ANOVA to evaluate differences between the treated groups and the negative control (DMSO). Multiple comparisons with the negative control were performed using Dunnett’s post hoc test. Statistical analysis was performed using GraphPad Prism 10 software (free trial, https://www.graphpad.com/demos/, accessed on 26 June 2024). For the calculation of the IC50s of the compounds, cytotoxicity responses were fitted to a variable slope sigmoidal equation (log(inhibitor) vs. normalized response). A p < 0.05 value was considered statistically significant.

MDA-MB-231 cells = test: MTT cell viability, MDA-MB-231; type: cell-based; conditions: for IC50: MTT, read-out: Cytotoxic Activity IC50 MDA-MB-231; for Cytotoxic activity, initial viability experiment: MDA-MB-231, 72 h of treatment; for Selectivity Index MCF-10A/ MDA-MB-231: ratio of IC50
Protocol: (§4) The BC cell lines MCF-7 and MDA-MB-231 were cultured in high-glucose DMEM medium with phenol red, supplemented with 7% and 10% fetal bovine serum (Gibco, Waltham, MA, USA), respectively, 1% Penicillin/Streptomycin (10,000 U/mL, Gibco, Waltham, MA, USA), and 1% non-essential amino acids (Gibco, Waltham, MA, USA). Cell cultures were maintained in a temperature-controlled incubator at 37 °C and 5% CO2 atmosphere. For the 72 h assays with MDA-MB-231, 1.8 x 10³ cells/well were seeded in 100 µL of medium.
as §2, §3

MCF-7 cells = test: MTT cell viability, MCF-7; type: cell-based; conditions: for IC50: MTT, read-out: Cytotoxic Activity IC50 MCF-7; for Selectivity Index MCF-10A/ MCF-7: ratio of IC50
Protocol: as §4, §2, §3

[2] = system: HDACs in nuclear extract of HeLa cells; test: HDAC inhibitory activity, fluorescence assay in HeLa nuclear extract; type: biochemical
Protocol: In this in vitro assay, residual HDAC activity was measured in a nuclear extract of HeLa cells after incubation with the different compounds at 5 µM, followed by single endpoint fluorescence measurement.
To obtain nuclear extracts, HeLa cell cultures were used. The HeLa cell line was cultured in high-glucose DMEM medium with phenol red, supplemented with 8% fetal bovine serum (Gibco, Waltham, MA, USA), 1% Penicillin/Streptomycin (10,000 U/mL, Gibco, Waltham, MA, USA), and 1% non-essential amino acids (Gibco, Waltham, MA, USA). Cells were maintained in an incubator at 37 °C and 5% CO2 atmosphere. To obtain the required number of cells for nuclear extraction, two 150 cm^2 flasks were cultured, resulting in approximately 2 × 10^7 cells. The cells were trypsinized with a 10% V/V trypsin solution (Gibco, Waltham, MA, USA) and subsequently centrifuged at 3000 rpm for 10 min for counting with trypan blue using an automatic counter (Mart-Counter 3000, Corning, NY, USA). Solutions for nuclear material extraction were prepared following the protocol of the commercial kit Abcam Ab156064 (ABCAM, Milpitas, CA, USA). For the lysis buffer (solution A), 10 mL was prepared with Tris-HCl (10 mM) pH 7.5, NaCl (10 mM), MgCl2 (15 mM), sucrose (250 mM), EGTA (0.1 mM), and NP-40 (0.5%). For the sucrose buffer (solution B), 15 mL was prepared with Tris-HCl (10 mM) pH 7.5, NaCl (10 mM), MgCl2 (3 mM), and sucrose (30%). For the extraction buffer (solution C), 10 mL was prepared with NaCl (420 mM), EGTA (0.1 mM), HEPES-KOH (50 mM, pH 7.5), EDTA Na₂ (0.5 mM), and glycerol (10%). For every 1 × 10^7 of cells, 1 mL of solution A (lysis buffer) was added and vortexed for 10 s, followed by a 15 min rest in an ice bath. Then, 4 mL of solution B (sucrose buffer) was added, and the mixture was centrifuged at 1300× g for 10 min at 4 °C. The supernatant was discarded, and the nuclear pellet was washed with a solution of NaCl (10 mM) and Tris-HCl (10 mM) at pH 7.5. The nuclear pellet was then resuspended in 100 µL of solution C (extraction buffer), sonicated for 30 s, and placed in an ice bath for 30 min. The nuclear solution was centrifuged at 20,000× g for 10 min and the supernatant, containing the nuclear extract, was collected. The nuclear extracts were stored at −80 °C. The Lowry colorimetric assay was used to standardize the protein concentration of the obtained nuclear extracts. A sample of the nuclear extract and a sample of bovine serum albumin as a control were each added to 1 mL of Lowry reagent (sodium tartrate 0.1 M, sodium bicarbonate 0.1 M, CuSO4 0.01 M, and 50% Folin reagent).
Prior to the experiment, a calibration curve was performed to ensure linearity.
Reactions were prepared in a 96-well plate following the specified volumes and conditions. Initially, the appropriate volume of deionized water (ddH2O) and 10 μL of buffer were added to each well. Subsequently, 5 μL of either acetylated or deacetylated substrate was added, depending on the experimental group.
Inhibition controls included Trichostatin A (TSA) at 1 mM, with 2 μL added to achieve a final concentration of 20 μM. The reaction was initiated by adding 4 μL of HeLa nuclear extract to each well, except for the developer control wells. The plate was incubated at 37 °C for 30 min, followed by the addition of 10 μL of developer solution. After a second incubation at 37 °C for another 30 min, fluorescence was measured using a plate reader with an excitation/emission of 350–380 nm/440–460 nm.
Remaining HDAC activity was estimated using the calibration curve, where the fluorescence units (AFU) obtained for each condition were converted into deacetylated substrate concentration (μM).

MCF-10A cells = test: MTT cell viability, non-tumorigenic MCF-10A; type: cell-based; conditions: 72 h
Protocol: as §1, §2, §3

[3] = Homo sapiens, MDA-MB-231, 72 h, 72 h
[4] = 5 µM, single endpoint fluorescence

Molecule	IC50 (MDA-MB-231 cells; [3]) [µM]	Cytotoxic activity, initial viability experiment (MDA-MB-231 cells)	Selectivity Index MCF-10A/ MDA-MB-231 (MDA-MB-231 cells)	IC50 (MCF-7 cells; Homo sapiens, MCF7, 72 h, 72 h) [µM]	Selectivity Index MCF-10A/ MCF-7 (MCF-7 cells)	Effect on HDAC activity [2, 4]	further results
CC(=O)NCCCCCC(=O)Nc1ccc(O)cc1 [5b, 6-Acetamido-N-(4-hydroxyphenyl) Hexanamide]	121 ± 26.7	significant cytotoxic activity	1.39	230	0.74		IC50 at 72 h [1]: 169 ± 20.6 µM; IC50 (MCF-7 cells; 72 h): 228 ± 52.9 µM
CC(=O)NCCCCCC(=O)O [compound 2, 6-Acetamidohexanoic Acid]						slight decrease in HDACs activity	
O=C(CCCCCNC(=O)C(F)(F)F)Nc1ccc(O)cc1 [6b, N-(4-hydroxyphenyl)-6-(2,2,2-trifluoroacetamido) Hexanamide]	76.7	significant cytotoxic activity	2.01	45.7 ± 6.91	3.38		IC50 at 72 h [1]: 155 ± 21.6 µM; fold less toxic than SAHA in MCF-10A cells (MCF-10A cells): more than 50 fold; fold more potent than 5b in triple-negative breast cancer cells (MDA-MB-231 cells; 72 h): 1.5 fold; IC50 (MDA-MB-231 cells; 72 h): 76.7 ± 8.52 µM; fold more active than 5b in ER-positive cells (MCF-7 cells; 72 h): 5 fold
O=C(CCCCCNC(=O)C(F)(F)F)Nc1ccccc1O [6a, N-(2-hydroxyphenyl)-6-(2,2,2-trifluoroacetamido) Hexanamide]	226	significant cytotoxic activity	>2.66	254 ± 34.4	>2.36	slight decrease in HDACs activity	fold less toxic than SAHA in MCF-10A cells (MCF-10A cells): ≈ 200 fold; IC50 (MDA-MB-231 cells; 72 h): 225 ± 17.6 µM
CC(=O)NCCCCCC(=O)Nc1ccccc1O [5a, 6-Acetamido-N-(2-hydroxyphenyl) Hexanamide]						slight decrease in HDACs activity	
O=C(CCCCCCC(=O)Nc1ccccc1)NO [SAHA, suberoylanilide hydroxamic acid, reference compound]						reduced HDAC activity almost completely	
O=C(O)CCCCCNC(=O)C(F)(F)F [compound 3, 6-(2,2,2-trifluoroacetamido) Hexanoic Acid]						slight decrease in HDACs activity	
Trichostatin A [TSA, reference compound]							Effect on HDAC activity ([2]; TSA 20 µM): reduced HDAC activity almost completely
